In brackets after ≈: the same amount, converted by molar mass. Where two headings read alike, the source gives them in different places. A value given as a limit tells only on which side of the number the result lay.

The values that follow come from patent US11707442B2, “Antibacterial and antifungal compounds” (The General Hospital Corporation, priority 2015, dated 2023).

The subject of data set [1] is Salmonella typhimurium strains TA 1535 and TA 1538. The note with it: With S9; 5 μg/plate. As for the experimental part: The Ames test was conducted using histidine auxotroph Salmonella typhimurium strains TA 1535 and TA 1538. To test mutagenic potential of the synthetic retinoids themselves and their metabolic products, the assay was conducted both with and without rat liver S9 fraction (Moltox, Boone, N.C., USA). Briefly, 100 μl of bacterial overnight cultures was added into 500 μl of phosphate buffer containing a range of amounts of the retinoids dissolved in 10 μl DMSO and with or without 4% S9. After incubation at 37° C. for 1 h, the samples were added into 2 ml of soft agar including 0.5 mM of histidine/biotin, mixed, and poured onto minimal glucose agar plates. The plates were incubated at 37° C. for 48 h, and the revertant colonies were counted. 10 μl DMSO was used as a negative control. […] 5 μg/plate 2-aminoanthracene was used as a positive control for both strains in the metabolic activation system. The test was performed in triplicate.

Another data set deals with C. neoformans. The data set is described as follows: MIC against fungal cultures. Type of data set: cell-based. The note with it: Cryptococcus neoformans, read-out: Drug MIC. How it is done: (§1) The cells were harvested by centrifugation at 4000 RPM for 5 minutes and washed with PBS; the cell pellets were resuspended in RPMI 1640 medium. The cell count was calculated with a hemocytometer and adjusted to be between 5.0×10^4 to 2.5×10^6 cells/ml. A tested compound was prepared and added to RPMI 1640 medium at 2× the final concentration. […] For C. albicans, OD595 was read after incubating the plate at 35° C. for 24 hrs. For KN99α, OD595 was read after incubating the plate at 35° C. for 70 hrs in accordance with CLSI document M27-A2.

The next data set deals with Candida tropicalis. The data set can be described thus: MIC against fungal cultures. Type of data set: cell-based. How it is done: as §1
A further data set has as its system Candida glabrata. The data set can be described thus: MIC against fungal cultures. Type of data set: cell-based. The following applies: Nakaseomyces glabratus, read-out: Drug MIC.
The subject of a further data set is E. faecium. The data set is described as follows: MIC, broth microdilution. It counts as cell-based, Enterococcus faecium. The following applies: Enterococcus faecium, read-out: Drug MIC. An excerpt: (§2) Bacterial strains and growth conditions and persister isolation: methicillin-resistant S. aureus (MRSA) strain MW2 BAA-1707, vancomycin-resistant S. aureus strain VRS 1, 11 clinical S. aureus isolates, 8 clinical Enterococcus faecium isolates, Klebsiella pneumoniae WGLW2 (BEI Resources, Manassas, Va., USA), Acinetobacter baumannii ATCC 17978, Pseudomonas aeruginosa PA14, and Enterobacter aerogenes ATCC 13048 were used to test antimicrobial activity (See Table 1a). S. aureus and E. faecium strains were grown in tryptic soy broth (TSB) (BD, Franklin Lakes, N.J., USA) or brain-heart infusion (BHI) broth (BD, Franklin Lakes, N.J., USA), respectively at 37° C. at 225 rpm. K. pneumoniae, A. baumannii, P. aeruginosa, and E. aerogenes were grown in Luria Bertani (LB) broth (BD, Franklin Lakes, N.J., USA).
(§3) To test the bacterial MICs for compounds described herein, the total volume in each well was 100 μl of test compounds and bacterial cells in MH broth. […] The bacterial concentration was adjusted to an initial OD600 of 0.03. After incubation at 35° C. for 18 hrs, the absorbance was measured at 595 nm in accordance with CLSI document M07-A8. The MICs of antibiotics were determined by the standard microdilution method recommended by the Clinical and Laboratory Standards Institute.

The next data set relates to S. aureus. The data set is described as follows: Minimal inhibitory concentration (MIC), broth microdilution. It counts as cell-based, Staphylococcus aureus.
Text: as §2, §3

The mark [2] stands for this setting: C. neoformans clinical isolate 41291.
[3] abbreviates: C. neoformans clinical isolate 41292.
Setting [4] is: C. neoformans clinical isolate 41294.
The mark [5] stands for this setting: C. neoformans clinical isolate 41295.
Setting [6] is: C. neoformans clinical isolate 41296.
[7] abbreviates: C. neoformans clinical isolate 41297.
[8] abbreviates: C. neoformans clinical isolate 41298.
Setting [9] is: C. neoformans clinical isolate 41299.
Where [10] appears, read: C. neoformans clinical isolate 41300.
The mark [11] stands for this setting: C. neoformans clinical isolate BF113.
The mark [12] stands for this setting: C. neoformans clinical isolate BF114.
Where [13] appears, read: ATCC13803, Candida tropicalis ATCC 13803 (Reference), read-out: Drug MIC.
Setting [14] is: Candida tropicalis clinical isolate 11, read-out: Drug MIC.
The mark [15] stands for this setting: Candida tropicalis clinical isolate 85-S, read-out: Drug MIC.
[16] abbreviates: Candida tropicalis clinical isolate 172-S, read-out: Drug MIC.
Setting [17] is: ATCC90030, Candida glabrata ATCC 90030 (Reference).
The mark [18] stands for this setting: Candida glabrata clinical isolate 6891.
Setting [19] is: Candida glabrata clinical isolate 6922.
The mark [20] stands for this setting: Candida glabrata clinical isolate 6927.
Setting [21] is: Candida glabrata clinical isolate 6930.
Where [22] appears, read: Candida glabrata clinical isolate 6931.
Where [23] appears, read: Candida glabrata clinical isolate 6932.
[24] abbreviates: Candida glabrata clinical isolate 6943.
Setting [25] is: Candida glabrata clinical isolate 7110.
[26] abbreviates: Candida glabrata clinical isolate 7117.
[27] abbreviates: Candida glabrata clinical isolate 7221.
The mark [28] stands for this setting: Candida glabrata clinical isolate 7255.
Where [29] appears, read: Candida glabrata clinical isolate 7815.
[30] abbreviates: Candida glabrata clinical isolate 7869.
[31] abbreviates: Candida glabrata clinical isolate 7871.
Setting [32] is: Candida glabrata clinical isolate 8066.

With `Nc1ccc2cc3ccccc3cc2c1` [2AA, 2-Aminoanthracene], in data set [1], the “Number of revertants (T1535)” value is listed as 263 ± 15 and the “Number of revertants (T1538)” value stood at 2568 ± 108.

In the case of `C[C@@H]1[C@H](O)[C@@H](C)/C=C/C=C/C=C/C=C/C=C/C=C/C=C/[C@H](O[C@@H]2O[C@H](C)[C@@H](O)[C@H](N)[C@@H]2O)C[C@@H]2O[C@](O)(C[C@@H](O)C[C@@H](O)[C@H](O)CC[C@@H](O)C[C@@H](O)CC(=O)O[C@H]1C)C[C@H](O)[C@H]2C(=O)O` [Amphotericin B], the MIC in the data set on C. neoformans (setting [2]), in the data set on C. neoformans (setting [3]), in the data set with C. neoformans (setting [4]), in the data set on C. neoformans (setting [5]), in the data set with C. neoformans (setting [6]) and in the data set with C. neoformans (setting [7]) was 0.125 µg/mL (≈ 0.135 µM) throughout. Also, the minimal inhibitory concentration (MIC) in the data set on C. neoformans (setting [8]) is 0.125 µg/mL (≈ 0.135 µM); with C. neoformans (setting [9]) it was 0.125 µg/mL (≈ 0.135 µM); in the data set with C. neoformans (setting [10]), 0.125 µg/mL (≈ 0.135 µM); with C. neoformans (setting [11]) it was 0.125 µg/mL (≈ 0.135 µM); in the data set with C. neoformans (setting [12]) it was below 0.0625 µg/mL; with Candida tropicalis (setting [13]), 1 µg/mL (≈ 1.08 µM). The MIC in the data set on Candida tropicalis (setting [14]) came out at 0.5 µg/mL (≈ 0.541 µM); in the data set with Candida tropicalis (setting [15]), 0.125 µg/mL (≈ 0.135 µM); in the data set with Candida tropicalis (setting [16]), 0.5 µg/mL (≈ 0.541 µM); in the data set with Candida glabrata (setting [17]), 1 µg/mL (≈ 1.08 µM); in the data set with Candida glabrata (setting [18]), 0.5 µg/mL (≈ 0.541 µM); with Candida glabrata (setting [19]) it was 0.5 µg/mL (≈ 0.541 µM). For the same compound, the MIC in the data set with Candida glabrata (setting [20]) turned out to be 1 µg/mL (≈ 1.08 µM); in the data set on Candida glabrata (setting [21]) it was 1 µg/mL (≈ 1.08 µM); in the data set with Candida glabrata (setting [22]), 0.5 µg/mL (≈ 0.541 µM); with Candida glabrata (setting [23]), 0.5 µg/mL (≈ 0.541 µM); in the data set on Candida glabrata (setting [24]) it was 1 µg/mL (≈ 1.08 µM); in the data set on Candida glabrata (setting [25]), 0.5 µg/mL (≈ 0.541 µM). The MIC with Candida glabrata (setting [26]) worked out at 0.5 µg/mL (≈ 0.541 µM); in the data set with Candida glabrata (setting [27]), 0.5 µg/mL (≈ 0.541 µM); in the data set on Candida glabrata (setting [28]), 1 µg/mL (≈ 1.08 µM); in the data set with Candida glabrata (setting [29]), 0.5 µg/mL (≈ 0.541 µM); in the data set with Candida glabrata (setting [30]) it was 1 µg/mL (≈ 1.08 µM); in the data set on Candida glabrata (setting [31]), 1 µg/mL (≈ 1.08 µM). The MIC with Candida glabrata (setting [32]) turned out to be 0.5 µg/mL (≈ 0.541 µM).

As to `OC(Cn1cncn1)(Cn1cncn1)c1ccc(F)cc1F` [Fluconazole], the MIC in the data set on C. neoformans (setting [2]) is 8 µg/mL (≈ 26.1 µM); in the data set on C. neoformans (setting [3]), 64 µg/mL (≈ 209 µM); with C. neoformans (setting [4]), 8 µg/mL (≈ 26.1 µM); in the data set with C. neoformans (setting [5]) it was 64 µg/mL (≈ 209 µM); with C. neoformans (setting [6]), above 64 µg/mL; with C. neoformans (setting [7]) it was 8 µg/mL (≈ 26.1 µM). Also, the MIC was 8 µg/mL (≈ 26.1 µM) with C. neoformans (setting [8]); 4 µg/mL (≈ 13.1 µM) in the data set with C. neoformans (setting [9]); above 64 µg/mL with C. neoformans (setting [10]); 16 µg/mL (≈ 52.2 µM) with C. neoformans (setting [11]); 64 µg/mL (≈ 209 µM) in the data set on C. neoformans (setting [12]); 8 µg/mL (≈ 26.1 µM) in the data set with Candida tropicalis (setting [13]). For the same compound, the MIC is 0.5 µg/mL (≈ 1.63 µM) in the data set with Candida tropicalis (setting [14]); 1 µg/mL (≈ 3.27 µM) in the data set on Candida tropicalis (setting [15]); 2 µg/mL (≈ 6.53 µM) in the data set with Candida tropicalis (setting [16]); 8 µg/mL (≈ 26.1 µM) in the data set with Candida glabrata (setting [17]); 2 µg/mL (≈ 6.53 µM) with Candida glabrata (setting [18]); 2 µg/mL (≈ 6.53 µM) in the data set with Candida glabrata (setting [19]). Besides, the MIC stood at 2 µg/mL (≈ 6.53 µM) in the data set on Candida glabrata (setting [20]); 1 µg/mL (≈ 3.27 µM) in the data set with Candida glabrata (setting [21]); 0.5 µg/mL (≈ 1.63 µM) in the data set on Candida glabrata (setting [22]); 0.5 µg/mL (≈ 1.63 µM) in the data set on Candida glabrata (setting [23]); 8 µg/mL (≈ 26.1 µM) in the data set with Candida glabrata (setting [24]); 1 µg/mL (≈ 3.27 µM) with Candida glabrata (setting [25]). Also, the MIC in the data set on Candida glabrata (setting [26]) came to 2 µg/mL (≈ 6.53 µM); in the data set with Candida glabrata (setting [27]), 1 µg/mL (≈ 3.27 µM); in the data set on Candida glabrata (setting [28]), 2 µg/mL (≈ 6.53 µM); in the data set on Candida glabrata (setting [29]), 2 µg/mL (≈ 6.53 µM); with Candida glabrata (setting [30]) it was 4 µg/mL (≈ 13.1 µM); with Candida glabrata (setting [31]), 2 µg/mL (≈ 6.53 µM). The MIC with Candida glabrata (setting [32]) is 2 µg/mL (≈ 6.53 µM).

For `O=C(N[C@H](CO)[C@H](O)c1ccc([N+](=O)[O-])cc1)C(Cl)Cl` [chloramphenicol], the MIC in the data set on E. faecium (Enterococcus faecium clinical isolate C68 (Table 6)) amounted to 16 µg/mL (≈ 49.5 µM); in the data set on E. faecium (Enterococcus faecium clinical isolate D14 (Table 6)) it was 8 µg/mL (≈ 24.8 µM); in the data set on E. faecium (Enterococcus faecium clinical isolate D24 (Table 6)), 4 µg/mL (≈ 12.4 µM); in the data set with E. faecium (Enterococcus faecium clinical isolate D25 (Table 6)), 8 µg/mL (≈ 24.8 µM); in the data set on E. faecium (Enterococcus faecium clinical isolate D29 (Table 6)) it was 64 µg/mL (≈ 198 µM); with E. faecium (Enterococcus faecium clinical isolate W312 (Table 6)), 8 µg/mL (≈ 24.8 µM). Further, the MIC in the data set on E. faecium (Enterococcus faecium clinical isolate WC176 (Table 6)) came out at 16 µg/mL (≈ 49.5 µM).

With “Defensin 1: a CAMP (cationic antimicrobial peptide) secreted by the host immune system”, the MIC worked out at 8 µg/mL in the data set with S. aureus (S. aureus MW2 mutant SP1-8 (graS)); 8 µg/mL with S. aureus (S. aureus MW2 mutant SP1-48 (graS, manA)); 8 µg/mL against S. aureus (S. aureus MW2 mutant SP1-74 (graS, manA, MW2474)); 8 µg/mL in the data set with S. aureus (S. aureus MW2 mutant SP1-100 (graS, manA, MW2474)); 16 µg/mL in the data set on S. aureus (S. aureus MW2 mutant SP2-13 (yjbH)); 8 µg/mL against S. aureus (S. aureus MW2 mutant SP2-52 (yjbH, dltB)). The MIC in the data set on S. aureus (S. aureus MW2 mutant SP2-59 (yjbH, dltB, manA)) was determined as 8 µg/mL; in the data set on S. aureus (S. aureus MW2 mutant SP2-65 (yjbH, dltB, manA, MW1685)), 8 µg/mL; in the data set on S. aureus (S. aureus MW2 mutant SP2-100 (yjbH dltB, manA, MW1685)) it was 8 µg/mL; against S. aureus (S. aureus MW2 serial passage culture SP1-1 (no mutated gene)) it was 16 µg/mL; against S. aureus (S. aureus MW2 serial passage culture SP2-1 (no mutated gene)), 16 µg/mL.
